We go through 13 compounds from patent US9752110B2, “Method and compositions of preserving wine” (YSDR, LLC, priority 2008, dated 2017).

One series deals with eNOS. To be noted: cited from earlier work.
For series [1] the following is noted: cited from earlier work.
For another series, the system named is malolactic conversion. Put plainly: Effect on malolactic conversion in wine. The text has this:
Another important process in wine-making is the Malolactic fermentation. Malic acid is naturally present in the grape must, but it adds an unpleasant taste to the wine. […] As discussed above, nearly all red wines undergo malolactic fermentation. As discussed above, the conversion is usually carried out by introducing a lactobacteria (most commonly the Oenococus-Oeni lactobacteria) to the wine after an initial fermentation step. […] Therefore, in wine preserved with resveratrol and/or pterostilbene, the malolactic fermentation can take place during the initial alcohol-fermentation process. That is, no separate step of malic and lactic fermentation needs to be carried out when wine is preserved with resveratrol and/or pterostilbene.

The subject of the next series is acetobacter xilum. The experiment in a line: Antibacterial specificity: acetobacter.
The subject of a further series is lactobacilus. Put plainly: Antibacterial specificity: lactobacilli.
Series [2] deals with bacteria and fungi in wine. Particulars: cited from earlier work.

As for `O=C(O)/C=C/c1ccc(O)cc1` [p-coumaric acid], in the series on eNOS, the “eNOS expression or eNOS promoter activity” value is given as “enhanced eNOS expression moderately”. For the compound `COc1cc(/C=C/c2ccc(O)cc2)cc(OC)c1` [pterostilbene, 4-[(E)-2,(3,5-dimethoxyphenyl)ethenyl]phenol], in series [1], the water solubility result is recorded as “less water soluble than resveratrol”.

Regarding sulfur dioxide [SO2], the “effect on malolactic conversion” value in the series with malolactic conversion was “suppress the malolactic conversion”.

In the case of `Oc1ccc(/C=C/c2cc(O)cc(O)c2)cc1` [Resveratrol, 3,4′,5-trihydroxy-trans-stilbene], the “inhibition of acetobacter xilum” value in the series with acetobacter xilum is listed as “specific inhibitor”. Further, the “anti-bacterial properties against lactobacilus” value in the series with lactobacilus was “no anti-bacterial properties”. Also, the “eNOS expression or eNOS promoter activity” value with eNOS is listed as “most efficacious stimulator”. Further, the “antibacterial and antifungal activity in wine” value in series [2] is “antibacterial and antifungal activity”. Turning to `O=C(O)c1ccccc1` [benzoic acid], the “eNOS expression or eNOS promoter activity” value with eNOS is recorded as “enhanced eNOS expression moderately”. catechin: the “eNOS expression or eNOS promoter activity” value in the series with eNOS is given as “did not change”. For `O=c1c(O)c(-c2ccc(O)c(O)c2)oc2cc(O)ccc12` [fisetin], in the series with eNOS, the “eNOS expression or eNOS promoter activity” value was “did not change”. On to `COc1cc(C(=O)O)ccc1O` [vanillic acid], for which the “eNOS expression or eNOS promoter activity” value with eNOS is on record as “enhanced eNOS expression moderately”. With `O=c1c(O)c(-c2cc(O)c(O)c(O)c2)oc2cc(O)cc(O)c12` [myricetin], in the series on eNOS, the “eNOS expression or eNOS promoter activity” value is “did not change”. `O=C(O)/C=C/c1ccc(O)c(O)c1` [caffeic acid]: the “eNOS expression or eNOS promoter activity” value in the series with eNOS is “enhanced eNOS expression moderately”. As to `O=C(O)c1cc(O)c(O)c(O)c1` [gallic acid], the “eNOS expression or eNOS promoter activity” value with eNOS is listed as “did not change”. Take `COc1cc(/C=C/C(=O)O)ccc1O` [ferulic acid]: the “eNOS expression or eNOS promoter activity” value with eNOS is on record as “did not change”. On to `COc1cc(C=CC(=O)O)cc(OC)c1O` (stereo in doubt) [sinapinic acid], for which the “eNOS expression or eNOS promoter activity” value in the series with eNOS is given as “did not change”.
